Source: paper PMC6888270 (International Journal of Molecular Sciences, 2019)
Square brackets hold non-standard residues; d marks the D form. Peptide text beside a SMILES is read from it. d(hArg(Et2)) = CCN=C(NCC)NCCCC[C@@H](N)C(=O)O; hArg(Et2) = CCN=C(NCC)NCCCC[C@H](N)C(=O)O; dPhe(4-Cl) = N[C@H](Cc1ccc(Cl)cc1)C(=O)O; d2Nal = N[C@H](Cc1ccc2ccccc2c1)C(=O)O; dCit = NC(=O)NCCC[C@@H](N)C(=O)O; d3Pal = N[C@H](Cc1cccnc1)C(=O)O

Tests used:
Lhb gene expression = Lhb gene expression by qRT-PCR in LβT2 cells; type: cell-based, mouse; conditions: 1 µM GnRH + 1 µM antagonist, 24 h, n = 4
Method: LβT2 cells were seeded in 24-well plates (2 × 10^5 cells/well) and cultured for 24 h in DMEM supplemented with 10% Charcoal Stripped FBS, 4.5 g/L glucose, 100 IU/mL penicillin, 0.1 mg/mL streptomycin, and 1 mM glutamine (all from Sigma-Aldrich) before treatments. […] Samples were lysed for RNA extraction using TRIzolTM Reagent (Invitrogen) and equal amounts of total RNA were used for cDNA synthesis performed using the iScript reverse transcriptase (BioRad), as previously described. qRT-PCR was carried out in triplicates on the CFX96TM Real-Time PCR Detection System (BioRad) using the following primers pairs: [NT] for mouse Lhb; [NT] for mouse Gapdh. Primer sequences were drawn using the Mus musculus Lhb (NCBI Reference Sequence: NM_008497.2) and Gapdh (NM_008084.3) mRNAs as templates. Gene expression of Lhb was normalized to mouse Gapdh gene expression using the 2^-ΔΔCt method.

GnRH receptor (GnRHR) = biological target: T1, GnRH receptor (GnRHR) (Homo sapiens, UniProt P30968); experiment: BRET measurement of GnRH-induced intracellular Ca2+ increase in HEK293/GnRHR cells; type: cell-based; parameters: HA (hemagglutinin); expressed in transfected cells; host or cells: HEK293 (transient co-transfection with BRET biosensor); conditions: means ± SEM, n = 6
T1 sequence (P30968 1-328): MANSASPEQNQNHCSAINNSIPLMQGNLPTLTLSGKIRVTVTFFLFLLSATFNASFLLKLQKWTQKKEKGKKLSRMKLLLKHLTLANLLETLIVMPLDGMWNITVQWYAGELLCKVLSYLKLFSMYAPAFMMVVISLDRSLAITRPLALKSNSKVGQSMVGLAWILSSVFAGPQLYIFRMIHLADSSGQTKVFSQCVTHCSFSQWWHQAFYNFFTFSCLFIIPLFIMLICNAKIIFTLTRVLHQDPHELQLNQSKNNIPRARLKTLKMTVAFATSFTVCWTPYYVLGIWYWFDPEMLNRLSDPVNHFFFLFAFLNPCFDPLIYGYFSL
Method: Different transfection protocols were followed, depending on the endpoint to be measured. For BRET experiments, 3 × 10^4 cells were transiently transfected using vectors expressing the cAMP-CAMYEL or the aequorin-Ca^2+ BRET biosensor-encoding cDNA [59], as appropriate, together with the GnRHR-HA-encoding vector. Transfections were performed in a 96-well plate using the Metafectene PRO reagent (Biontex, München, Germany), as previously described. 100 ng of the receptor-encoding vector + 100 ng of the BRET biosensor-encoding vector were used for co-transfecting HEK293 cells, while SH-SY5Y cells were co-transfected using 200 ng of the receptor-encoding vector + 100 ng of the BRET biosensor-encoding vector. 200 ng of the aequorin-Ca^2+ BRET biosensor-encoding cDNA were used for transfecting LβT2 cells. Each sample was prepared in duplicate, cultured for 48 h and serum-starved over-night before experiments.
To evaluate Ca^2+ increase, cells were incubated in Hank’s Balanced Salt Solution (HBSS) with Ca^2+ and Mg^2+, 1 mM Hepes and 5 µM Coelenterazine H (NanoLight Technologies, a division of Prolume, Ltd., Pinetop, AZ, USA), for 45 minutes, together with Cetrorelix, Ganirelix, Teverelix or vehicle, as appropriate. […] The EC50 was extrapolated from the curve obtained from each cell line. Cells treated by 5 µM of the sarco/endoplasmic reticulum Ca^2+ ATPase enzyme inhibitor, thapsigargin (Tocris Bioscience), served as positive control. Treatment by the vehicle (HBSS) was the negative control and used as a normalizer.
BRET experiments were performed using a CLARIOstar plate reader equipped by a monocromator (BMG Labtech, Ortenberg, Germany), as previously described.
Data were plotted on graphs as means ± standard error of means (SEM). The kinetics of intracellular Ca^2+ increase was represented by the BRET biosensor emission after background subtraction (vehicle). […] Data distributions were analyzed by D’Agostino and Pearson normality tests and inhibition of intracellular Ca^2+ increase by different concentrations of antagonist were compared using two-way analysis of variance (ANOVA), followed by Bonferroni post-test or Kruskal-Wallis and proper post-test. cAMP accumulation was represented as acceptor:donor emission ratio (induced BRET changes) after basal subtraction (untreated cells). Dose-response curves were obtained by data interpolation using non-linear regressions and normalized as percentage of the maximal response. EC50s, as well as half-maximal inhibitory concentrations (IC50), were compared by t-test or Mann–Whitney U test, while results obtained by Western blotting and qRT-PCR data were compared by one-way ANOVA followed by Bonferroni post-test. Statistical differences were considered as significant for p < 0.05. These analyses were performed using the GraphPad Prism software (GraphPad Software Inc., San Diego, CA, USA).

[1] = 3 × EC50 GnRH + 1 pM antagonist
[2] = 3 × EC50 GnRH + 10 pM antagonist
[3] = 3 × EC50 GnRH + 100 pM antagonist
[4] = 3 × EC50 GnRH + 1 nM antagonist
[5] = 3 × EC50 GnRH + 75 nM antagonist
[6] = 3 × EC50 GnRH + 100 nM antagonist
[7] = 3 × EC50 GnRH + 1 µM antagonist

SMILES	effect on GnRH-induced Lhb gene expression (Lhb gene expression)	AUC of the kinetics of intracellular Ca2+ response (GnRH receptor (GnRHR); [1])	AUC of the kinetics of intracellular Ca2+ response (GnRH receptor (GnRHR); [2])	AUC of the kinetics of intracellular Ca2+ response (GnRH receptor (GnRHR); [3])	AUC of the kinetics of intracellular Ca2+ response (GnRH receptor (GnRHR); [4])	AUC of the kinetics of intracellular Ca2+ response (GnRH receptor (GnRHR); [5])	AUC of the kinetics of intracellular Ca2+ response (GnRH receptor (GnRHR); [6])	AUC of the kinetics of intracellular Ca2+ response (GnRH receptor (GnRHR); [7])	AUC of the kinetics of intracellular Ca2+ response (GnRH receptor (GnRHR); 3 × EC50 GnRH + 10 nM antagonist)
CC(=O)N[C@H](Cc1ccc2ccccc2c1)C(=O)N[C@H](Cc1ccc(Cl)cc1)C(=O)N[C@H](Cc1cccnc1)C(=O)N[C@@H](CO)C(=O)N[C@@H](Cc1ccc(O)cc1)C(=O)N[C@H](CCCNC(N)=O)C(=O)N[C@@H](CC(C)C)C(=O)N[C@@H](CCCNC(=N)N)C(=O)N1CCC[C@H]1C(=O)N[C@H](C)C(N)=O [Cetrorelix] (Ac-[d2Nal][dPhe(4-Cl)][d3Pal]SY[dCit]LRP[dA]-NH2)	inhibited	78,113 ± 29,979	124,981 ± 33,684	126,243 ± 34,982	71,127 ± 25,268	18,632 ± 4423	8946 ± 3296	3264 ± 3024	
CCN=C(NCC)NCCCC[C@H](NC(=O)[C@H](CC(C)C)NC(=O)[C@@H](CCCCNC(=NCC)NCC)NC(=O)[C@H](Cc1ccc(O)cc1)NC(=O)[C@H](CO)NC(=O)[C@@H](Cc1cccnc1)NC(=O)[C@@H](Cc1ccc(Cl)cc1)NC(=O)[C@@H](Cc1ccc2ccccc2c1)NC(C)=O)C(=O)N1CCC[C@H]1C(=O)N[C@H](C)C(N)=O [Ganirelix] (Ac-[d2Nal][dPhe(4-Cl)][d3Pal]SY[d(hArg(Et2))]L[hArg(Et2)]P[dA]-NH2; N-terminus and C-terminus assumed)	inhibited	76,189 ± 18,564	91,896 ± 21,766	101,943 ± 27,388	66,665 ± 16,035	43,870 ± 4193	34,734 ± 13,731	3346 ± 2977	73,164 ± 16,237
